Data on one compound can be found in PMC6300978 (Chemico-biological interactions, 2015).

Each structure is given as a SMILES string. Where only a bound is given, the exact number is not on record here.

Broadly, the Vmax is the rate approached at saturating substrate. As a reminder, the Km is the substrate concentration at which the rate is half of its maximum.

One data set deals with T1, recombinant human UGT2B7 (Homo sapiens, UniProt P16662).
T1 sequence (P16662 24-529): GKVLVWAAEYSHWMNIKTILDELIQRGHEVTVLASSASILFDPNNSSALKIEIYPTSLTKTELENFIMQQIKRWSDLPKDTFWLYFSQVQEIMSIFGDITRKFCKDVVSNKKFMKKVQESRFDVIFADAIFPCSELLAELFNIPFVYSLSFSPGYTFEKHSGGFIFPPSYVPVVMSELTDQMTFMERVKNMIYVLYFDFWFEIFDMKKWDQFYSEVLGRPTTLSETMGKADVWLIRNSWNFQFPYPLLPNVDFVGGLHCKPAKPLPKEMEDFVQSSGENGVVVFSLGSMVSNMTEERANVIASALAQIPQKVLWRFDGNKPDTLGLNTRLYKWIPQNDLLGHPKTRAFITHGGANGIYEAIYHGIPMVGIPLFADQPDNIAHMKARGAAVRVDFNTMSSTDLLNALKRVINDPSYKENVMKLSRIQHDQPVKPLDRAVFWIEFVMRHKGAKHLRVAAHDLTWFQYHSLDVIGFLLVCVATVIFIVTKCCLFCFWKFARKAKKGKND
Kind of data set: GA glucuronidation by recombinant UGT2B7. The format is in vitro ADME. As to conditions: UGT2B7, whole range of substrate concentrations.

The nature of data set [1]: GA glucuronidation kinetics in cynomolgus monkey liver microsomes. The format is in vitro ADME, cynomolgus monkeys. Conditions: CyLM; for Km at 60 min: cynomolgus monkey, liver microsomes, pH 7.4, Km (KS), Michaelis–Menten. On the technique in general: Liver microsomes are a subcellular fraction often used to study metabolism.
For another data set, the target named is T2, UGT1A1 (Homo sapiens, UniProt P22309).
T2 sequence (P22309 26-533): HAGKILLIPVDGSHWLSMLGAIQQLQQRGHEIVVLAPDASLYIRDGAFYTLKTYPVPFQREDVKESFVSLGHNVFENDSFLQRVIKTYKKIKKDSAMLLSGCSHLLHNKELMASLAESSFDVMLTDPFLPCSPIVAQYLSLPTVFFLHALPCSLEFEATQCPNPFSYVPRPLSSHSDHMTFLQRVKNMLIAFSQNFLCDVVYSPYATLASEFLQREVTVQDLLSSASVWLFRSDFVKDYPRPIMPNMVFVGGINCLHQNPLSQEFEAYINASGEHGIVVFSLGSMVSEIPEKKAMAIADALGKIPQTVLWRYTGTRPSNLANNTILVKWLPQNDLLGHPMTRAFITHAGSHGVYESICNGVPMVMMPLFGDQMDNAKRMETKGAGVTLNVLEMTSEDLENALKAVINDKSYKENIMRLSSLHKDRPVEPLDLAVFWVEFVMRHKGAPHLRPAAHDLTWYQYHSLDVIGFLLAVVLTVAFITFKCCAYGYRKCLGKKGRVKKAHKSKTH
Put plainly: GA glucuronidation kinetics by recombinant UGT1A1. Conditions: recombinant human UGT1A1, pH 7.4, Clint. The format is in vitro ADME.

Data set [2] is described as follows: GA glucuronidation kinetics in human liver microsomes. The format is in vitro ADME. As to conditions: HLM; for microsomal CLint / Km at 60 min: both, human; for microsomal CLint: human liver microsomes; for Km at 60 min: liver microsomes, pH 7.4, Km (KS), Michaelis–Menten.
Data set [3] concerns the target T3, recombinant human UGT2B15 (Homo sapiens, UniProt P54855).
T3 sequence (P54855 24-530): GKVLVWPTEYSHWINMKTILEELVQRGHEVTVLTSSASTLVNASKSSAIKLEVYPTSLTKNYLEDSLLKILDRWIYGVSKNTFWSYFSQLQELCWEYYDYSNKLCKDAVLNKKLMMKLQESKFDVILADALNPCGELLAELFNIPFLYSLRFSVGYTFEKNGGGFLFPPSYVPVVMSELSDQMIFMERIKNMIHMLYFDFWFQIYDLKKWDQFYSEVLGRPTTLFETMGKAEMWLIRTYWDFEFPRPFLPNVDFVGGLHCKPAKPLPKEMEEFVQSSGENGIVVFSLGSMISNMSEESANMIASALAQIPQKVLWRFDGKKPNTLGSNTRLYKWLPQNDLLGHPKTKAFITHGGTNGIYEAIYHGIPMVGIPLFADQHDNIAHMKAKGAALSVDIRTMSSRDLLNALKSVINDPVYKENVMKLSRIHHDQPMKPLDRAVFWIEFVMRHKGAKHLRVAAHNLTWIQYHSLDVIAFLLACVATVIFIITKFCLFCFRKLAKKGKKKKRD
Kind of data set: GA glucuronidation by recombinant UGT2B15. The format is in vitro ADME. Conditions: UGT2B15, whole range of substrate concentrations.

Consider `CC1(C)C=Cc2c(ccc3c2OC[C@@H](c2ccc(O)cc2O)C3)O1` [GA, glabridin], for which the GA glucuronidation activity (on recombinant human UGT2B7; in data set [3]) was below 0.04 nmol/min/mg throughout. Also, the Vmax in data set [1] (M1 formation) was found to be 0.051 ± 0.005 nmol/min/mg; in data set [1] (M2 formation) it was 0.51 ± 0.09 nmol/min/mg; in data set [2] (M1 formation) it was 0.044 ± 0.005 nmol/min/mg; in data set [2] (M2 formation), 0.25 ± 0.03 nmol/min/mg. For the same compound, the Km at 60 min amounted to 10 ± 3 µM in data set [1] (M1 formation), 35 ± 11 µM in data set [1] (M2 formation), 6.3 ± 3.6 µM in data set [2] (M1 formation) and 24.2 ± 5.7 µM in data set [2] (M2 formation). The microsomal CLint on UGT1A1 (UGT1A1, M1 formation) is 22 µL/min/mg; on UGT1A1 (UGT1A1, M2 formation) it was 5 µL/min/mg; in data set [2] (pH 7.4, Clint, M1 formation, Vmax/Km), 7 µL/min/mg; in data set [2] (pH 7.4, Clint, M2 formation, Vmax/Km), 10 µL/min/mg; in data set [2] (pH 7.4, Cltotal, M1 + M2), 17 µL/min/mg.
